Among the data in US9850283B2, “Macrocyclic inhibitors of the PD-1/PD-L1 and CD80(B7-1)/PD-L1 protein/protein interactions” (BRISTOL-MYERS SQUIBB COMPANY, priority 2013, dated 2017) are IC50 values, retold here.

Where two headings read alike, the source gives them in different places. Positions of bridges follow the written chain, without caps; N, C: chain ends. Non-standard residues stand in square brackets, D forms with d. Residues, ends and D or L forms follow the SMILES beside them. Hyp = O=C(O)[C@@H]1C[C@@H](O)CN1; NMeNle = CCCC[C@H](NC)C(=O)O; NMeA = CN[C@@H](C)C(=O)O; Dab = NCC[C@H](N)C(=O)O; Dap = NC[C@H](N)C(=O)O

In one experiment the target is T1, Human PD-L1/PD-1 (Homo sapiens, UniProt Q9NZQ7).
T1 construct: made in house; host or cells: HEK293T
Briefly: HTRF PD-1-Ig/PD-L1-His binding assay (human PD-L1). A digest of the protocol: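 The time-resolved fluorescence signal comes from Eu-cryptate anti-Ig (1 nM) and APC anti-His (20 nM) antibodies bound to a PD-1-Ig/PD-L1-His complex. Both partners lack transmembrane regions.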

Experiment [1] deals with T2, LK35.2-hPD-L1 cells / PE-labeled PD-1-Ig (Homo sapiens, UniProt Q9NZQ7).
T2 construct: expressed in transfected cells; host or cells: LK35.2 mouse B cell line
Briefly: LK35.2-hPD-L1 cell binding high-content screening assay. Type of experiment: cell-based. The note with it: cell binding assay, cell line not given. The procedure, abridged:
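Mouse LK35.2 B cells stably overexpressing human PD-L1 were cultured overnight in RPMI with 10% FCS, then given compound and PE-labeled human PD-1-Ig (1 nM final) for 1 h at 37 °C. After three dPBS washes, bound fluorescence was quantified by high-content imaging.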

The mark [2] stands for this setting: cluster symbol, read-out: HTRF IC50 cluster.
The mark [3] stands for this setting: cluster symbol, read-out: CBA IC50 cluster.

T2 sequence (Q9NZQ7 19-290): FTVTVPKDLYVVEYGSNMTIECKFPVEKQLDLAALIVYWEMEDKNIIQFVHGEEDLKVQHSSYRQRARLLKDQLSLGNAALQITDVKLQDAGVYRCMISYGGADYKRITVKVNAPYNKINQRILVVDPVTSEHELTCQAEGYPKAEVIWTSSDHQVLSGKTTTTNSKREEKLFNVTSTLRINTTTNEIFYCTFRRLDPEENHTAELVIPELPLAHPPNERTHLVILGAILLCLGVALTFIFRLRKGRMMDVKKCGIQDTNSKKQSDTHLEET
T1 sequence (Q9NZQ7 with tags, fused parts or gaps): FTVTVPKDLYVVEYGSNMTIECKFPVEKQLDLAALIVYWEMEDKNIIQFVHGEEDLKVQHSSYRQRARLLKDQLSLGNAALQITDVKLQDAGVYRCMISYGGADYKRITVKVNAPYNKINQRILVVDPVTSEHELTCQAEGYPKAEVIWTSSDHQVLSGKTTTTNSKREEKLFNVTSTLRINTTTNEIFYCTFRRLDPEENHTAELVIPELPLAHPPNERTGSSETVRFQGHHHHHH

As a reminder, the IC50 is the midpoint of a concentration-inhibition curve. In the case of `CCCC[C@H]1C(=O)N(C)[C@@H](CCCC)C(=O)N[C@@H](CCCCN)C(=O)N[C@H](C(=O)NCC(N)=O)CSCC(=O)N[C@@H](Cc2ccc(O)cc2)C(=O)N(C)[C@@H](C)C(=O)N[C@@H](CC(=O)O)C(=O)N2CCC[C@H]2C(=O)N[C@@H](Cc2c[nH]cn2)C(=O)N[C@@H](CCC(N)=O)C(=O)N2C[C@H](O)C[C@H]2C(=O)N[C@@H](Cc2c[nH]c3ccccc23)C(=O)N[C@@H](CO)C(=O)N[C@@H](Cc2c[nH]c3ccccc23)C(=O)N1C` [Example 5120] ({CH2CO}-Y[NMeA]DPHQ[Hyp]WSW[NMeNle][NMeNle]KCG-NH2; thioether N-14), the half-maximal inhibitory concentration (IC50) on Human PD-L1/PD-1 (setting [2]) lay in the range of 0.385 to 6.74 nM; in experiment [1] (setting [3]) it was 0.158 to 4.71 nM.
Consider `CCCC[C@H]1C(=O)N(C)[C@@H](CCCC)C(=O)N[C@@H](CO)C(=O)N[C@H](C(=O)NCC(N)=O)CSCC(=O)N[C@@H](Cc2ccc(O)cc2)C(=O)N(C)[C@@H](C)C(=O)N[C@@H](CC(N)=O)C(=O)N2CCC[C@H]2C(=O)N[C@@H](Cc2c[nH]cn2)C(=O)N[C@@H](CCC(N)=O)C(=O)N2C[C@H](O)C[C@H]2C(=O)N[C@@H](Cc2c[nH]c3ccccc23)C(=O)N[C@@H](CO)C(=O)N[C@@H](Cc2c[nH]c3ccccc23)C(=O)N1C` [Example 5121] ({CH2CO}-Y[NMeA]NPHQ[Hyp]WSW[NMeNle][NMeNle]SCG-NH2; thioether N-14), for which the half-maximal inhibitory concentration (IC50) lay in the range of 6.76 to 30.3 nM at Human PD-L1/PD-1 (setting [2]) and 4.78 to 72.9 nM in experiment [1] (setting [3]).
As for `CCCC[C@H]1C(=O)N(C)[C@@H](CCCC)C(=O)N[C@@H](CC(C)C)C(=O)N[C@H](C(=O)NCC(N)=O)CSCC(=O)N[C@@H](Cc2ccc(O)cc2)C(=O)N(C)[C@@H](C)C(=O)N[C@@H](CC(N)=O)C(=O)N2CCC[C@H]2C(=O)N[C@@H](Cc2c[nH]cn2)C(=O)NCC(=O)N2C[C@H](O)C[C@H]2C(=O)N[C@@H](Cc2c[nH]c3ccccc23)C(=O)N[C@@H](CO)C(=O)N[C@@H](Cc2c[nH]c3ccccc23)C(=O)N1C` [Example 5122] ({CH2CO}-Y[NMeA]NPHG[Hyp]WSW[NMeNle][NMeNle]LCG-NH2; thioether N-14), the concentration for half-maximal inhibition (IC50) came out at 34.8 nM at Human PD-L1/PD-1 (value given instead of cluster, read-out: HTRF IC50 value) and 134 nM in experiment [1] (value given instead of cluster, read-out: CBA IC50 value).
For the compound `CCCC[C@H]1C(=O)N(C)[C@@H](CCCC)C(=O)N[C@@H](CCCNC(=N)N)C(=O)N[C@H](C(=O)NCC(N)=O)CSCC(=O)N[C@@H](Cc2ccc(O)cc2)C(=O)N(C)[C@@H](C)C(=O)N[C@@H](CN)C(=O)N2CCC[C@H]2C(=O)N[C@@H](Cc2c[nH]cn2)C(=O)N[C@@H](CCC(=O)O)C(=O)N2C[C@H](O)C[C@H]2C(=O)N[C@@H](Cc2c[nH]c3ccccc23)C(=O)N[C@@H](CO)C(=O)N[C@@H](Cc2c[nH]c3ccccc23)C(=O)N1C` [Example 5123] ({CH2CO}-Y[NMeA][Dap]PHE[Hyp]WSW[NMeNle][NMeNle]RCG-NH2; thioether N-14), the 50% inhibitory concentration (IC50) on Human PD-L1/PD-1 (setting [2]) was 6.76 to 30.3 nM; in experiment [1] (setting [3]), 4.78 to 72.9 nM.
Turning to `CCCC[C@H]1C(=O)N(C)[C@@H](CCCC)C(=O)N[C@@H](CCCNC(=N)N)C(=O)N[C@H](C(=O)NCC(N)=O)CSCC(=O)N[C@@H](Cc2ccc(O)cc2)C(=O)N(C)[C@@H](C)C(=O)N[C@@H](CCCCN)C(=O)N2CCC[C@H]2C(=O)N[C@@H](Cc2c[nH]cn2)C(=O)N[C@@H](CCC(=O)O)C(=O)N2C[C@H](O)C[C@H]2C(=O)N[C@@H](Cc2c[nH]c3ccccc23)C(=O)N[C@@H](CO)C(=O)N[C@@H](Cc2c[nH]c3ccccc23)C(=O)N1C` [Example 5124] ({CH2CO}-Y[NMeA]KPHE[Hyp]WSW[NMeNle][NMeNle]RCG-NH2; thioether N-14), the concentration for half-maximal inhibition (IC50) was in the range of 0.385 to 6.74 nM on Human PD-L1/PD-1 (setting [2]) and 0.158 to 4.71 nM in experiment [1] (setting [3]).
For `CCCC[C@H]1C(=O)N(C)[C@@H](CCCC)C(=O)NCC(=O)N[C@H](C(=O)NCC(N)=O)CSCC(=O)N[C@@H](Cc2ccc(O)cc2)C(=O)N(C)[C@@H](C)C(=O)N[C@@H](CC(N)=O)C(=O)N2CCC[C@H]2C(=O)N[C@@H](Cc2c[nH]cn2)C(=O)N[C@@H](CCC(N)=O)C(=O)N2C[C@H](O)C[C@H]2C(=O)N[C@@H](Cc2c[nH]c3ccccc23)C(=O)N[C@@H](CO)C(=O)N[C@@H](Cc2c[nH]c3ccccc23)C(=O)N1C` [Example 5125] ({CH2CO}-Y[NMeA]NPHQ[Hyp]WSW[NMeNle][NMeNle]GCG-NH2; thioether N-14), the figures for the IC50 (at Human PD-L1/PD-1 (setting [2]); in experiment [1] (setting [3])) were 0.385 to 6.74 nM and 4.78 to 72.9 nM, respectively.
Take `CCCC[C@H]1C(=O)N(C)[C@@H](CCCC)C(=O)N[C@@H](CCC(=O)O)C(=O)N[C@H](C(=O)NCC(N)=O)CSCC(=O)N[C@@H](Cc2ccc(O)cc2)C(=O)N(C)[C@@H](C)C(=O)N[C@@H](CC(N)=O)C(=O)N2CCC[C@H]2C(=O)N[C@@H](Cc2c[nH]cn2)C(=O)N[C@@H](CCC(N)=O)C(=O)N2C[C@H](O)C[C@H]2C(=O)N[C@@H](Cc2c[nH]c3ccccc23)C(=O)N[C@@H](CO)C(=O)N[C@@H](Cc2c[nH]c3ccccc23)C(=O)N1C` [Example 5126] ({CH2CO}-Y[NMeA]NPHQ[Hyp]WSW[NMeNle][NMeNle]ECG-NH2; thioether N-14): the IC50 was 0.385 to 6.74 nM on Human PD-L1/PD-1 (setting [2]) and 4.78 to 72.9 nM in experiment [1] (setting [3]).
The corresponding values for `CCCC[C@H]1C(=O)N(C)[C@@H](CCCC)C(=O)N[C@@H](CC(C)C)C(=O)N[C@H](C(=O)NCC(N)=O)CSCC(=O)N[C@@H](Cc2ccc(O)cc2)C(=O)N(C)[C@@H](C)C(=O)N[C@@H](CC(N)=O)C(=O)N2CCC[C@H]2C(=O)NCC(=O)N[C@@H](CCC(N)=O)C(=O)N2C[C@H](O)C[C@H]2C(=O)N[C@@H](Cc2c[nH]c3ccccc23)C(=O)N[C@@H](CO)C(=O)N[C@@H](Cc2c[nH]c3ccccc23)C(=O)N1C` [Example 5127] ({CH2CO}-Y[NMeA]NPGQ[Hyp]WSW[NMeNle][NMeNle]LCG-NH2; thioether N-14) are 0.385 to 6.74 nM and 4.78 to 72.9 nM.
On the same counts, the results for `CCCC[C@H]1C(=O)N(C)[C@@H](CCCC)C(=O)N[C@@H](CO)C(=O)N[C@H](C(=O)NCC(N)=O)CSCC(=O)N[C@@H](Cc2ccc(O)cc2)C(=O)N(C)[C@@H](C)C(=O)N[C@@H](CC(N)=O)C(=O)N2CCC[C@H]2C(=O)N[C@@H](CO)C(=O)N[C@@H](CCC(N)=O)C(=O)N2C[C@H](O)C[C@H]2C(=O)N[C@@H](Cc2c[nH]c3ccccc23)C(=O)N[C@@H](CO)C(=O)N[C@@H](Cc2c[nH]c3ccccc23)C(=O)N1C` [Example 5128] ({CH2CO}-Y[NMeA]NPSQ[Hyp]WSW[NMeNle][NMeNle]SCG-NH2; thioether N-14) are 0.385 to 6.74 nM and 0.158 to 4.71 nM.
The corresponding values for `CCCC[C@H]1C(=O)N(C)[C@@H](CCCC)C(=O)N[C@@H](CCCNC(=N)N)C(=O)N[C@H](C(=O)NCC(N)=O)CSCC(=O)N[C@@H](Cc2ccc(O)cc2)C(=O)N(C)[C@@H](C)C(=O)N[C@@H](CCN)C(=O)N2CCC[C@H]2C(=O)NCC(=O)N[C@@H](CCC(=O)O)C(=O)N2C[C@H](O)C[C@H]2C(=O)N[C@@H](Cc2c[nH]c3ccccc23)C(=O)N[C@@H](CO)C(=O)N[C@@H](Cc2c[nH]c3ccccc23)C(=O)N1C` [Example 5129] ({CH2CO}-Y[NMeA][Dab]PGE[Hyp]WSW[NMeNle][NMeNle]RCG-NH2; thioether N-14) are 0.385 to 6.74 nM and 4.78 to 72.9 nM.
As to `CCCC[C@H]1C(=O)N(C)[C@@H](CCCC)C(=O)N[C@@H](CCCNC(=N)N)C(=O)N[C@H](C(=O)NCC(N)=O)CSCC(=O)N[C@@H](Cc2ccc(O)cc2)C(=O)N(C)[C@@H](C)C(=O)N[C@@H](CCN)C(=O)N2CCC[C@H]2C(=O)N[C@@H](CO)C(=O)N[C@@H](CCC(=O)O)C(=O)N2C[C@H](O)C[C@H]2C(=O)N[C@@H](Cc2c[nH]c3ccccc23)C(=O)N[C@@H](CO)C(=O)N[C@@H](Cc2c[nH]c3ccccc23)C(=O)N1C` [Example 5130] ({CH2CO}-Y[NMeA][Dab]PSE[Hyp]WSW[NMeNle][NMeNle]RCG-NH2; thioether N-14), the IC50 on Human PD-L1/PD-1 (setting [2]) was in the range of 6.76 to 30.3 nM; in experiment [1] (setting [3]) it was 0.158 to 4.71 nM.
